Several values for one entry are separate records, joined by “and”; a condition that tells them apart may be missing. Equal values may be shown once.
Tested on: normal human dermal fibroblast cultures
Assay: incorporation of radioactive glucosamine into the matrix neosynthesized by fibroblast cultures (GAG/hyaluronic acid synthesis)
Type: cell-based
Description: The study was performed by measuring the incorporation of radioactive glucosamine into the matrix neosynthesized by normal human dermal fibroblast cultures. The incorporation of radioactive glucosamine indicated a specific neosynthesis of glycosaminoglycans via incorporation of the acetylated form of this glucosamine.
The fibroblast cultures were prepared according to the standard methods of cell culturing, i.e., in MEM/M199 medium sold by Gibco, in the presence of sodium bicarbonate (1.87 mg/ml), L-glutamine (2 mM), penicillin (50 IU/ml) and 10% foetal calf serum (Gibco).
The test was performed on a cell culture at 80% confluence, on 96-well plates. The C-glycoside derivative at concentrations of 0.1 to 30 mM was placed in contact with the cells for 48 hours. Labeling with radioactive glucosamine (D-[6-H^3]-glucosamine, Amersham TRK398 (814 Gbq/mmol, 22 Ci/mmol)) was performed for 24 hours.
The level of radioactive glucosamine incorporated was measured at the end of the test by adsorption of the anionic molecules onto Q-sepharose beads followed by desorption of the sparingly and moderately anionic molecules with 6M urea plus 0.2M NaCl. Once washed, the radioactivity incorporated into the highly cationic molecules remaining on the support was counted.
The results were evaluated relative to a control consisting of cells that have not been treated with the C-glycoside derivative of formula (I).
A positive control (TGFβ at 10 ng/ml) known to stimulate GAG synthesis was introduced into the test as positive reference.

[1] = 0.4 mM, 48 hours contact, labeling 24 hours
[2] = 2 mM, 48 hours contact, labeling 24 hours
[3] = 10 mM, 48 hours contact, labeling 24 hours
[4] = TGFβ at 10 ng/ml, positive control, two values given
[5] = 0.1 mM, 48 hours contact, labeling 24 hours
[6] = 0.5 mM, 48 hours contact, labeling 24 hours
[7] = 0.3 mM, 48 hours contact, labeling 24 hours
[8] = 1 mM, 48 hours contact, labeling 24 hours
[9] = concentrations of 0.3, 1 and 3 mM
[10] = 3 mM, 48 hours contact, labeling 24 hours

CC(=O)C[C@@H]1OC[C@@H](O)[C@H](O)[C@H]1O [C-β-D-Xylopyranoside-n-propan-2-one, C-β-D-xylopyranoside-n-propan-2-one]
% (relative to untreated control) [1]: 141%
VALUE (radioactive glucosamine incorporated) [1]: 8564 cpm
% (relative to untreated control) [2]: 131%
VALUE (radioactive glucosamine incorporated) [2]: 11014 cpm
% (relative to untreated control) [3]: 161%
VALUE (radioactive glucosamine incorporated) [3]: 12507 cpm and 9811 cpm
effect on incorporation of radioactive glucosamine (concentrations of 0.4, 2 and 10 mM): stimulates the incorporation of radioactive glucosamine

TGFβ: positive control (TGFβ at 10 ng/ml) known to stimulate GAG synthesis
% (relative to untreated control) [4]: 348% and 454%
VALUE (radioactive glucosamine incorporated) [4]: 27124 cpm and 34865 cpm

O=C[C@H](O)[C@@H](O)[C@H](O)CO [D-Xylose, reference compound]
% (relative to untreated control) [5]: 102%
VALUE (radioactive glucosamine incorporated) [5]: 6586 cpm
% (relative to untreated control) [6]: 86%
VALUE (radioactive glucosamine incorporated) [6]: 4063 cpm

O=C(C[C@@H]1OC[C@@H](O)[C@H](O)[C@H]1O)c1ccccc1 [1-Phenyl-2-(C-β-D-Xylopyranoside)Ethan-1-One]
% (relative to untreated control) [5]: 120%
VALUE (radioactive glucosamine incorporated) [5]: 10113 cpm
% (relative to untreated control) [7]: 102%
VALUE (radioactive glucosamine incorporated) [7]: 8545 cpm
% (relative to untreated control) [8]: 95%
VALUE (radioactive glucosamine incorporated) [8]: 7941 cpm
effect on incorporation of radioactive glucosamine [9]: stimulate the incorporation of radioactive glucosamine

CC(C[C@@H]1OC[C@@H](O)[C@H](O)[C@H]1O)NCCCO (stereo partly drawn) [1-[2-(3-Hydroxypropylamio)Propyl]-C-β-D-Xylopyranose]
% (relative to untreated control) [5]: 110%
VALUE (radioactive glucosamine incorporated) [5]: 11656 cpm
% (relative to untreated control) [7]: 109%
VALUE (radioactive glucosamine incorporated) [7]: 11585 cpm
% (relative to untreated control) [8]: 140%
VALUE (radioactive glucosamine incorporated) [8]: 14832 cpm
effect on incorporation of radioactive glucosamine [9]: stimulate the incorporation of radioactive glucosamine

CC(O)C[C@@H]1OC[C@@H](O)[C@H](O)[C@H]1O (stereo partly drawn) [C-β-D-Xylopyranoside-2-hydroxypropane, C-β-D-xylopyranoside-2-hydroxypropane]
% (relative to untreated control) [7]: 139%
VALUE (radioactive glucosamine incorporated) [7]: 11634 cpm
% (relative to untreated control) [8]: 169%
VALUE (radioactive glucosamine incorporated) [8]: 14209 cpm
% (relative to untreated control) [10]: 218%
VALUE (radioactive glucosamine incorporated) [10]: 18271 cpm
effect on incorporation of radioactive glucosamine (concentrations of 0.1, 0.3 and 1 mM): stimulates the incorporation of radioactive glucosamine
